pIC50: −log10 of the molar value.

The term pIC50 denotes the negative decadic logarithm of the IC50, by convention in mol/L. Low readings indicate a high IC50, high ones a low IC50.

The target in experiment [1] is HIF2α PAS-B domain (236-350, biotinylated on the N-terminus) (Homo sapiens (Human), UniProt Q99814).
Description: The assay buffer contained 50 mM Tris-HCl pH7 (Sigma), 20 mM NaCl (Fluka), 0.02% BSA (Sigma), 0.005% Triton X-100 (Pierce) and 1 mM DTT (Fluka). After a 30 min incubation period, 5 μL Streptavidin PVT SPA Beads (Perkin Elmer) at 1.2 mg/mL, diluted in the buffer, were added.
For experiment [2], the system named is HIF2α-regulated expression of the endogenous target gene hEGLN3 in 786-O cells. The experiment can be described thus: Cellular iScript assay for HIF2α (quantitative RT-PCR of hEGLN3). As to conditions: Homo sapiens, 786-0, 48 hours incubation. Format: cell-based, human. In short, it runs like this: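 786-O cells were exposed to eleven 2-fold compound dilutions for 48 h at 37° C. Lysates underwent one-step TaqMan qRT-PCR for hEGLN3 with beta-actin as reference; 2^(−ΔΔCt) versus DMSO, as % of control, was fit with a four-parameter model to give IC50.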

Experiment [3] deals with HIF2α-dependent transcription in 786-O-HRE-Luc cells. Kind of experiment: In vitro cellular hypoxia response element (HRE) reporter gene assay (RGA) for HIF2α. Format: cell-based, human. As to conditions: Homo sapiens, 24 hours incubation. The gist of the method:
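Renal carcinoma cells carrying a 4×HRE-driven PEST-destabilised firefly luciferase were treated a day after seeding with eleven 2-fold compound dilutions (0.1% DMSO) for 24 h at 37° C. BrightGlo luminescence, background-subtracted and expressed as % of DMSO control, was fitted four-parametrically for IC50.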
In general terms: In a reporter assay the amount or activity of a reporter protein is the signal.

HIF2α PAS-B domain (236-350, biotinylated on the N-terminus), sequence (Q99814 236-350): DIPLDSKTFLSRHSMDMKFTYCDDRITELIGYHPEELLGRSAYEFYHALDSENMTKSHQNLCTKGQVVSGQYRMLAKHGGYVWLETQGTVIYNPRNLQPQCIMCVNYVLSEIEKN

Turning to `Fc1ccc2c(c1F)CCC[C@@]21CN2C=C(C(F)(F)F)C=C(OC(F)F)C2=N1` [Example 85, (S)-8-(difluoromethoxy)-5′,6′-difluoro-6-(trifluoromethyl)-3′,4′-dihydro-2′H,3H-spiro[imidazo[1,2-a]pyridine-2,1′-naphthalene]], the values for the negative-log IC50 (pIC50) in experiment [1], in experiment [2] and in experiment [3] were 8.40, 7.15 and 6.69, respectively.

With `FC(F)OC1=CC(C(F)(F)F)=CN2C[C@@]3(CCCc4cc(C(F)(F)F)ccc43)N=C12` [Example 86, (S)-8-(difluoromethoxy)-6,6′-bis(trifluoromethyl)-3′,4′-dihydro-2′H,3H-spiro[imidazo[1,2-a]pyridine-2,1′-naphthalene]], the pIC50 in experiment [1] was 7.89; in experiment [2], 7.19; in experiment [3] it was 6.75.

On to `FC(F)OC1=CC(C(F)(F)F)=CN2C[C@@]3(CCCc4c(Cl)cccc43)N=C12` [Example 88, (S)-5′-chloro-8-(difluoromethoxy)-6-(trifluoromethyl)-3′,4′-dihydro-2′H,3H-spiro[imidazo[1,2-a]pyridine-2,1′-naphthalene]], for which the results for the pIC50 in experiment [1], in experiment [2] and in experiment [3] were not below 8.40, 7.49 and 6.85, respectively.

As for `Fc1c(Br)ccc2c1CCC[C@@]21CN2C=C(Cl)C=C(OC(F)F)C2=N1` [Example 89, (S)-6′-bromo-6-chloro-8-(difluoromethoxy)-5′-fluoro-3′,4′-dihydro-2′H,3H-spiro[imidazo[1,2-a]pyridine-2,1′-naphthalene]], the values for the pIC50 in experiment [1], in experiment [2] and in experiment [3] were not below 8.15, 7.47 and 6.66, respectively.

In the case of `N#CC1=CN2C[C@@]3(CCCc4c3ccc(F)c4F)N=C2C(OC(F)F)=C1` [Example 91, (S)-8-(difluoromethoxy)-5′,6′-difluoro-3′,4′-dihydro-2′H,3H-spiro[imidazo[1,2-a]pyridine-2,1′-naphthalene]-6-carbonitrile], the negative-log IC50 (pIC50) is 8.30 in experiment [1], 7.52 in experiment [2] and 6.58 in experiment [3].

As to `N#CC1=CN2C[C@@]3(CCC(F)(F)c4c3ccc(Br)c4F)N=C2C(OC(F)F)=C1` [Example 92, (S)-6′-bromo-8-(difluoromethoxy)-4′,4′,5′-trifluoro-3′,4′-dihydro-2′H,3H-spiro[imidazo[1,2-a]pyridine-2,1′-naphthalene]-6-carbonitrile], the pIC50 in experiment [1] is 7.54; in experiment [2], 6.82; in experiment [3], 6.20.

For the compound `N#CC1=CN2C[C@@]3(CCCc4c3ccnc4Cl)N=C2C(OC(F)F)=C1` [Example 94, (S)-1′-chloro-8-(difluoromethoxy)-7′,8′-dihydro-3H,6′H-spiro[imidazo[1,2-a]pyridine-2,5′-isoquinoline]-6-carbonitrile], the negative-log IC50 (pIC50) in experiment [1] was 7.48; in experiment [2] it was 6.71; in experiment [3], 5.65.

In the case of `FCOC1=CC(C(F)(F)F)=CN2C[C@@]3(CCOc4c(Cl)cccc43)N=C12` [Example 95, (S)-8-chloro-8′-(fluoromethoxy)-6′-(trifluoromethyl)-3′H-spiro[chromane-4,2′-imidazo[1,2-a]pyridine]], the pIC50 is 7.64 in experiment [1], 6.74 in experiment [2] and 6.57 in experiment [3].

Turning to `N#Cc1ccc2c(c1Cl)OCC[C@@]21CN2C=C(C(F)(F)F)C=C(OC(F)F)C2=N1` [Example 96, (S)-8-chloro-8′-(difluoromethoxy)-6′-(trifluoromethyl)-3′H-spiro[chromane-4,2′-imidazo[1,2-a]pyridine]-7-carbonitrile], the results for the pIC50 in experiment [1], in experiment [2] and in experiment [3] were 7.49, 6.70 and 6.29, respectively.

Regarding `Fc1c(Cl)ccc2c1OC[C@H](F)[C@@]21CN2C=C(C(F)(F)F)C=C(OC(F)F)C2=N1` [Example 97, (3R,4S)-7-chloro-8′-(difluoromethoxy)-3,8-difluoro-6′-(trifluoromethyl)-3′H-spiro[chromane-4,2′-imidazo[1,2-a]pyridine]], the pIC50 in experiment [1] was 7.96; in experiment [2], 7.24; in experiment [3], 6.71.

Turning to `Fc1ccc2c(c1F)OC[C@H](F)[C@@]21CN2C=C(C(F)(F)F)C=C(OC(F)F)C2=N1` [Example 98, (3R,4S)-8′-(difluoromethoxy)-3,7,8-trifluoro-6′-(trifluoromethyl)-3′H-spiro[chromane-4,2′-imidazo[1,2-a]pyridine]], the pIC50 was 7.77 in experiment [1], 6.98 in experiment [2] and 6.92 in experiment [3].

Consider `CSc1ccc2c(c1F)OCC[C@@]21CN2C=C(C(F)(F)F)C=C(OC(F)F)C2=N1` [Example 99, (S)-8′-(difluoromethoxy)-8-fluoro-7-(methylthio)-6′-(trifluoromethyl)-3′H-spiro[chromane-4,2′-imidazo[1,2-a]pyridine]], for which the negative logarithm of the IC50 (pIC50) in experiment [1] is 8.00; in experiment [2] it was 7.15; in experiment [3], 6.54.

As for `FC(F)OC1=CC(C(F)(F)F)=CN2C[C@@]3(CCOc4c3ccc(Br)c4Cl)N=C12` [Example 100, (S)-7-bromo-8-chloro-8′-(difluoromethoxy)-6′-(trifluoromethyl)-3′H-spiro[chromane-4,2′-imidazo[1,2-a]pyridine]], the pIC50 in experiment [1] was 8.40; in experiment [2], 7.20; in experiment [3], 6.97.

On to `FC(F)OC1=CC(C(F)(F)F)=CN2C[C@@]3(CCOc4c3ccc(Br)c4Br)N=C12` [Example 102, (S)-7,8-dibromo-8′-(difluoromethoxy)-6′-(trifluoromethyl)-3′ H-spiro[chromane-4,2′-imidazo[1,2-a]pyridine]], for which the pIC50 was 7.96 in experiment [1], 7.32 in experiment [2] and 7.18 in experiment [3].

On to `COc1ccc2c(c1F)OCC[C@@]21CN2C=C(C(F)(F)F)C=C(OC(F)F)C2=N1` [Example 103, (S)-8′-(difluoromethoxy)-8-fluoro-7-methoxy-6′-(trifluoromethyl)-3′H-spiro[chromane-4,2′-imidazo[1,2-a]pyridine]], for which the results for the pIC50 in experiment [1], in experiment [2] and in experiment [3] were 7.38, 6.96 and 6.38, respectively.

As to `FC(F)OC1=CC(C(F)(F)F)=CN2C[C@@]3(CCOc4c(C(F)(F)F)cccc43)N=C12` [Example 104, (S)-8′-(difluoromethoxy)-6′,8-bis(trifluoromethyl)-3′H-spiro[chromane-4,2′-imidazo[1,2-a]pyridine]], the pIC50 was not below 8.30 in experiment [1], 6.93 in experiment [2] and 6.20 in experiment [3].

`Fc1c(OC(F)(F)F)ccc2c1OCC[C@@]21CN2C=C(C(F)(F)F)C=C(OC(F)F)C2=N1` [Example 105, (S)-8′-(difluoromethoxy)-8-fluoro-7-(trifluoromethoxy)-6′-(trifluoromethyl)-3′H-spiro[chromane-4,2′-imidazo[1,2-a]pyridine]]: the pIC50 was 7.68 in experiment [1], 6.74 in experiment [2] and 6.61 in experiment [3].

As for `Fc1c(SC(F)F)ccc2c1OCC[C@@]21CN2C=C(C(F)(F)F)C=C(OC(F)F)C2=N1` [Example 106, (S)-8′-(difluoromethoxy)-7-((difluoromethyl)thio)-8-fluoro-6′-(trifluoromethyl)-3′H-spiro[chromane-4,2′-imidazo[1,2-a]pyridine]], the pIC50 in experiment [1] was 8.00; in experiment [2] it was 7.09; in experiment [3], 6.83.

Regarding `FC(F)OC1=CC(C(F)(F)F)=CN2C[C@@]3(CCOc4c(Br)cccc43)N=C12` [Example 107, (S)-8-bromo-8′-(difluoromethoxy)-6′-(trifluoromethyl)-3′H-spiro[chromane-4,2′-imidazo[1,2-a]pyridine]], the pIC50 is 8.15 in experiment [1], 6.72 in experiment [2] and 6.09 in experiment [3].

For the compound `[2H]C1C([2H])([2H])Sc2c(F)cccc2[C@]12CN1C=C(C#N)C=C(OC(F)F)C1=N2` (stereo partly drawn) [Example 109, (2S)-8-(difluoromethoxy)-8′-fluoro-3H-spiro[imidazo[1,2-a]pyridine-2,4′-thiochromane]-6-carbonitrile-2′,2′,3′-d3], the pIC50 in experiment [1] is 8.40; in experiment [2], 7.38; in experiment [3] it was 7.05.

For `N#Cc1ccc2c(c1F)SCC[C@@]21CN2C=C(C(F)(F)F)C=C(OC(F)F)C2=N1` [Example 111, (S)-8-(difluoromethoxy)-8′-fluoro-6-(trifluoromethyl)-3H-spiro[imidazo[1,2-a]pyridine-2,4′-thiochromane]-7′-carbonitrile], the pIC50 in experiment [1] is 8.05; in experiment [2], 7.37; in experiment [3], 7.00.

As to `N#CC1=CN2C[C@@]3(CCSc4c3ccc(F)c4F)N=C2C(OC(F)F)=C1` [Example 112, (S)-8-(difluoromethoxy)-7′,8′-difluoro-3H-spiro[imidazo[1,2-a]pyridine-2,4′-thiochromane]-6-carbonitrile], the pIC50 was 8.15 in experiment [1], 7.39 in experiment [2] and 6.94 in experiment [3].

Turning to `FCOC1=CC(C(F)(F)F)=CN2C[C@@]3(CCSc4c3cnc(C(F)(F)F)c4F)N=C12` [Example 114, (S)-8′-fluoro-8-(fluoromethoxy)-6,7′-bis(trifluoromethyl)-2′,3′-dihydro-3H-spiro[imidazo[1,2-a]pyridine-2,4′-thiopyrano[3,2-c]pyridine]], the values for the pIC50 in experiment [1], in experiment [2] and in experiment [3] were 7.38, 7.08 and 6.45, respectively.

Regarding `Fc1ccc2c(c1F)OCCC[C@@]21CN2C=C(C(F)(F)F)C=C(OC(F)F)C2=N1` [Example 117, (S)-8′-(difluoromethoxy)-8,9-difluoro-6′-(trifluoromethyl)-3,4-dihydro-2H,3′H-spiro[benzo[b]oxepine-5,2′-imidazo[1,2-a]pyridine]], the pIC50 in experiment [1] is not below 8.40; in experiment [2] it was 7.62; in experiment [3], 6.55.

For the origin of these results see patent publication US12226405B2, “Compounds and compositions for inhibiting the activity of HIF2-alpha and their methods of use” (Novartis AG, priority 2020, dated 2025).
